Article PMC6812009, “Covalent Aurora A regulation by the metabolic integrator coenzyme A” (Redox Biology, 2019)
pIC50: −log10 of the molar value. Read-outs that look alike come from different tables or passages of the source.

How the values were obtained:
mouse oocytes = assay: Microinjection of mouse oocytes, spindle formation and chromosome alignment; assay type: cell-based; settings: 17 h after GV release; for Disruption of bipolar spindle formation and chromosome alignment: injected with 3 mM compound
Method: Mouse oocytes arrested at the GV stage were injected with different concentrations of CoA (0.15–5 mM). Since the commercial preparation of CoA used for microinjection contained 3 mol of lithium ions per mole of CoA, control oocytes were injected with an equivalent amount of LiCl. In a separate study, oocytes were injected with 3 mM CoA, ADP, AMP, 3′-5′-ADP and pantetheine. To examine the effect of injected compounds on spindle formation, oocytes were fixed 17 h after GV release and stained for alpha-tubulin (green) and DNA (blue).

Aurora A (active) = target: T1, Aurora A (active) (Homo sapiens, UniProt O14965); assay: In vitro Aurora A kinase assay (γ33P-ATP incorporation into myelin basic protein); assay type: biochemical; settings: for pIC50: 5 μM ATP; for IC50: 5 μM competing ATP, read-out: Aurora A (active) IC50 (μM), activity assay
T1 construct: Bacterially expressed full-length His-Aurora A was used to determine the IC50 value for CoA; made in house; host or cells: E. coli BL21 (DE3) pLysS
T1 sequence (O14965 1-403): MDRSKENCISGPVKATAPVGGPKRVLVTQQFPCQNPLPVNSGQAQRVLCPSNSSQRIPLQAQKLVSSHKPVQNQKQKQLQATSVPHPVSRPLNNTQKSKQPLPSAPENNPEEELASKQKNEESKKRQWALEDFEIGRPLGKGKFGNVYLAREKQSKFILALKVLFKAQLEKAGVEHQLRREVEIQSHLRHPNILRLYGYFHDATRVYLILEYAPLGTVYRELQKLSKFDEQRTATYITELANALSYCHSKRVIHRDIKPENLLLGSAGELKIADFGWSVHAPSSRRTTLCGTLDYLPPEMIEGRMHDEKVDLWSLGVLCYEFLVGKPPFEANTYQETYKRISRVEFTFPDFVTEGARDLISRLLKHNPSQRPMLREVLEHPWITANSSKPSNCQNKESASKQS
Method: (§1) Profiling of 117 protein kinases with CoA, dpCoA and ADP was carried out at the International Centre for Protein Kinase Profiling at the University of Dundee. Each compound was tested in vitro, in duplicate, at 100 μM final concentration using recombinant kinases, model substrates and optimal concentrations of ATP. Bacterially expressed full-length His-Aurora A was used to determine the IC50 value for CoA (in the presence or absence of DTT), dpCoA, ADP and desulfo-CoA. The assay was performed in the presence of 5 μM competing ATP. To examine whether the inhibitory effect of CoA on Aurora A is modulated by TPX2, IC50 values for CoA were also generated in the presence and absence of 1 μg TPX2 (residues 1–43) fragment.
Aurora A kinase activity was assayed by measuring incorporation of γ^33P-ATP into myelin basic protein (Sigma). Purified recombinant protein (100 ng) was incubated at room temperature for 30 min in a total volume of 15 μl containing 50 mM HEPES pH 7.5, 10 mM MgCl2, 1 mM EGTA, 0.05% Brij-35, 0.5 mg/ml myelin basic protein, and 5 μM γ^33P-ATP (100–10,000 dpm/pmol). The reaction was stopped by spotting the reaction mixture onto squares of P81 phosphocellulose ion exchange paper (Whatmann), which were then immersed in 1.5% (v/v) phosphoric acid. After washing twice in 1% phosphoric acid followed by two washes in distilled water, the papers were air dried and radioactivity was counted by a scintillation counter and recorded by Quantasmart version 2.03.

PRAK = target: T2, PRAK (Homo sapiens, UniProt Q8IW41); assay: Kinase profiling screen (radioactive filter-binding assay); assay type: biochemical; settings: 100 μM compound, 20 μM ATP; read-out: Kinase activity, % of activity in the absence of inhibitor
T2 sequence (Q8IW41 1-473): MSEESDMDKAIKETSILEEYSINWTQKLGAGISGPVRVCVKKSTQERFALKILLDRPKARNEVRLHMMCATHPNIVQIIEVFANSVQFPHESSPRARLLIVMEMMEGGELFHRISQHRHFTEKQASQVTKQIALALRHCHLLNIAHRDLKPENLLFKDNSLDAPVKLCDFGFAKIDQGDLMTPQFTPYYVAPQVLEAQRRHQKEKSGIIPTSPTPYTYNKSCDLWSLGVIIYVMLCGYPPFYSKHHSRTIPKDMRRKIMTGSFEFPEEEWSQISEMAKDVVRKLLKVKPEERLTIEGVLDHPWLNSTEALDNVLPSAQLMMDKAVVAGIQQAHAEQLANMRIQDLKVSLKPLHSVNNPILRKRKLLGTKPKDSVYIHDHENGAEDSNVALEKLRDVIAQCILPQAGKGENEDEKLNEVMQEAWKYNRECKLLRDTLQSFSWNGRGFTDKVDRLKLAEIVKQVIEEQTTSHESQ
In short: (§2)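 Single-point in vitro screen: 100 μM final of CoA, dpCoA and ADP, run in duplicate against recombinant kinase with a model substrate and optimal ATP.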

ABL = ABL (Homo sapiens, UniProt P00519); assay: as above; assay type: biochemical; settings: 100 μM compound, 5 μM ATP; read-out: Kinase activity, % of activity in the absence of inhibitor
In short: as §2

wild-type Aurora A = target: T3, wild-type Aurora A (Homo sapiens, UniProt O14965); assay: In vitro CoAlation assay; assay type: binding
T3 construct: For enzyme and DSF assays, full-length human Aurora A and Aurora B and 1–43 TPX2 were produced; made in house; host or cells: E. coli
Method: (§3) For CoAlation assays, 0.5 μg of purified recombinant preparations of wild type and mutant forms of His-Aurora A (Cys290Ala; Cys393Ala, Cys290/393Ala, Thr217Glu) and His-Aurora B (Glu161Thr) were incubated with a mixture of oxidised and reduced forms of CoA (CoASH and CoASSCoA, 1 mM final) in 20 mM Tris-HCl, pH 7.5 for 30 min at RT. The reaction was stopped by adding SDS gel-loading buffer without DTT, but containing 10 mM NEM. To examine whether binding of the 3′-phosphate ADP moiety of CoA to the Aurora A ATP binding-pocket co-ordinates the pantetheine thiol for disulfide bond formation with Cys 290, the in vitro CoAlation assay was carried out with 100 μM CoA and increasing concentrations of ATP (0–10 mM).

Aurora B mutant = target: T4, Aurora B mutant (Homo sapiens, UniProt Q96GD4, E161T); assay: In vitro CoAlation assay; assay type: binding
T4 construct: For enzyme and DSF assays, full-length human Aurora A and Aurora B and 1–43 TPX2 were produced; made in house; host or cells: E. coli BL21 (DE3) pLysS
Method: as §3

[1] = target: T5, Thr217Glu mutant of Aurora A (Homo sapiens, UniProt O14965, T217E); assay: In vitro CoAlation assay; assay type: binding
T5 construct: For enzyme and DSF assays, full-length human Aurora A and Aurora B and 1–43 TPX2 were produced; made in house; host or cells: E. coli
Method: as §3

CAMKK = assay: Kinase profiling screen (radioactive filter-binding assay); assay type: biochemical, human; settings: 100 μM compound, 20 μM ATP
Method: as §1

AMPK = assay: as above; assay type: biochemical, human; settings: 100 μM compound, 50 μM ATP
Method: as §1

ROCK 2 = assay: as above; assay type: biochemical, human; settings: 100 μM compound, 20 μM ATP
Method: as §1

ABL, sequence (P00519 whole entry): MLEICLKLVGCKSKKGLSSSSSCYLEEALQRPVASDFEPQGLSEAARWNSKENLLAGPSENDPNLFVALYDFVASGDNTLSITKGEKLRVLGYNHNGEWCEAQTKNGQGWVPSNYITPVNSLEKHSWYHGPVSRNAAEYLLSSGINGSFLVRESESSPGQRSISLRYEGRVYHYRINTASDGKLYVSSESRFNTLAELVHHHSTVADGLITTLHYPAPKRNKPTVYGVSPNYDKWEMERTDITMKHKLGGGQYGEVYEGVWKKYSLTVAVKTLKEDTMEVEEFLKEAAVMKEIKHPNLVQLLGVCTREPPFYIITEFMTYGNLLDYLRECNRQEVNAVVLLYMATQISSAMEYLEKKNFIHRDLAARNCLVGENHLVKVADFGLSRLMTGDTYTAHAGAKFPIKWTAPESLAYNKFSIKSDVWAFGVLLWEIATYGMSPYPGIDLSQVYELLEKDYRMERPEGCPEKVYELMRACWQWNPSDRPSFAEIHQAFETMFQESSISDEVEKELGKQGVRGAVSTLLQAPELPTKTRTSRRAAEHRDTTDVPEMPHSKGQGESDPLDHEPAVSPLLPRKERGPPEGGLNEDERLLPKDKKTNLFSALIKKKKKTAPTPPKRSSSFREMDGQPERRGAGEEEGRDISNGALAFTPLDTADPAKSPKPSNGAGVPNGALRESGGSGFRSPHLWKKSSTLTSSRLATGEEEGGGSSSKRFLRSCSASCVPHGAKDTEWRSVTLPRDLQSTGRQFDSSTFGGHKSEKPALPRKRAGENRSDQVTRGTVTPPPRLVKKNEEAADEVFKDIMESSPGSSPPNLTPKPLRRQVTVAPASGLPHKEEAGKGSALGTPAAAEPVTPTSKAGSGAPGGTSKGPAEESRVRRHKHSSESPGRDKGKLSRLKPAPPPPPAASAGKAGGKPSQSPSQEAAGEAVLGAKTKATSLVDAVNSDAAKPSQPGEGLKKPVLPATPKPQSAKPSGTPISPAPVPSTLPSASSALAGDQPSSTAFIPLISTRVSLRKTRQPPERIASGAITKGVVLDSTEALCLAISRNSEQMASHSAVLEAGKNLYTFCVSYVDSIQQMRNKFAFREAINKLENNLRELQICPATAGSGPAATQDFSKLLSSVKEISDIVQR
T5 sequence (O14965 whole entry T217E): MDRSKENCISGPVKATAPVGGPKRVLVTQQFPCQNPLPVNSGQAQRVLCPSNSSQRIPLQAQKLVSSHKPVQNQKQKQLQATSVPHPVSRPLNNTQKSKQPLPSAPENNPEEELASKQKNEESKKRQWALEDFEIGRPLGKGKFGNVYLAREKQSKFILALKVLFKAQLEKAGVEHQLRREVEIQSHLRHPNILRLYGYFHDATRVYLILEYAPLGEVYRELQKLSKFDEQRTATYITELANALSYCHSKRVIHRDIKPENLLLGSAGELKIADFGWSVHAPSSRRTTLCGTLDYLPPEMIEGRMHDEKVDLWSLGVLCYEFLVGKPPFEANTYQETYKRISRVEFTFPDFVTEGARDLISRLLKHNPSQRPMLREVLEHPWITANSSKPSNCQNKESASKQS
T4 sequence (Q96GD4 whole entry E161T): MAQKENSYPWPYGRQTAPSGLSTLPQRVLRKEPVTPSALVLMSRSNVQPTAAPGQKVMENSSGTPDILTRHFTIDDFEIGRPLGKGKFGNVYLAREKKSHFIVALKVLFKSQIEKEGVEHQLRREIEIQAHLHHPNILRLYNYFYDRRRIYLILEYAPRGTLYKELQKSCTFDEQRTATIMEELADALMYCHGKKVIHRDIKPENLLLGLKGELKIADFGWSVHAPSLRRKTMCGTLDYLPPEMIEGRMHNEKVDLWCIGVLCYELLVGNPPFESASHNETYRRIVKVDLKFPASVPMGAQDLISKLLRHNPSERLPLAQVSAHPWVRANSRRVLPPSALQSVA

| Compound | Disruption of bipolar spindle formation and chromosome alignment (mouse oocytes) | Number of oocytes with atypical spindles and misaligned chromosomes (mouse oocytes; microinjection of 0.15–5 mM CoA, dose-dependent) | pIC50 (Aurora A (active); 1 mM DTT, read-out: IC50, Aurora A kinase activity in the presence of DTT) | pIC50 (Aurora A (active); absence of DTT, read-out: IC50, Aurora A kinase activity) | IC50 (Aurora A (active)) | TPX2-induced kinase activation after pre-incubation of Aurora A with CoA (Aurora A (active); 100 μM CoA pre-incubation, DTT-sensitive) | Inhibitory effect on Aurora A in the presence of TPX2 1–43 fragment (Aurora A (active); presence of TPX2 (residues 1–43), serial dilutions of CoA) | activity at 100 µM (PRAK) | activity at 100 µM (ABL) | In vitro CoAlation of Aurora A (wild-type Aurora A) | CoA binding (in vitro CoAlation) (Aurora B mutant) | CoA binding compared to the wild-type kinase [1] | Kinase activity, % of activity in the absence of inhibitor (CAMKK) | Kinase activity, % of activity in the absence of inhibitor (AMPK) | Kinase activity, % of activity in the absence of inhibitor (ROCK 2) |
| --- | --- | --- | --- | --- | --- | --- | --- | --- | --- | --- | --- | --- | --- | --- | --- |
| CC(C)(COP(=O)(O)OP(=O)(O)OC[C@H]1O[C@@H](n2cnc3c(N)ncnc32)[C@H](O)[C@@H]1OP(=O)(O)O)[C@@H](O)C(=O)NCCC(=O)NCCS [CoA, Coenzyme A] | disrupted both bipolar spindle formation and chromosome alignment | markedly increased | 4.33 | ~5.30 | 5 µM | attenuated | completely abrogated the inhibitory effect | 99.7% | 111% | strong CoAlation | strong binding | significantly reduced CoA binding | 97.4% | 90.8% | 94.3% |
| CC(C)(COP(=O)(O)OP(=O)(O)OCC1OC(n2cnc3c(N)ncnc32)C(O)C1O)C(O)C(=O)NCCC(=O)NCCS (stereo not shown) [dpCoA, dephospho-CoA] |  |  |  |  | 17 µM |  |  | 77.7% | 98% |  |  |  | 71.4% | 75.9% | 96.4% |
| Nc1ncnc2c1ncn2C1OC(COP(=O)(O)OP(=O)(O)O)C(O)C1O (stereo not shown) [ADP] | not |  |  |  | 54 µM |  |  | 15.2% | 22.9% |  |  |  | 52.9% | 54.1% | 57.8% |
